Results: paper PMC12494831, “Discovery of new pyridine 3-carboxylic acid-based pharmacophores as dual anti-inflammatory and anti-hyperglycemic agents” (Scientific Reports, 2025)

Experiments:
α-amylase (EC.3.2.1.1) = target: T1, α-amylase (EC.3.2.1.1) (Homo sapiens, UniProt P04746); assay: In vitro α-amylase inhibition (starch/DNS, 540 nm); type: biochemical
T1 sequence (P04746 16-511): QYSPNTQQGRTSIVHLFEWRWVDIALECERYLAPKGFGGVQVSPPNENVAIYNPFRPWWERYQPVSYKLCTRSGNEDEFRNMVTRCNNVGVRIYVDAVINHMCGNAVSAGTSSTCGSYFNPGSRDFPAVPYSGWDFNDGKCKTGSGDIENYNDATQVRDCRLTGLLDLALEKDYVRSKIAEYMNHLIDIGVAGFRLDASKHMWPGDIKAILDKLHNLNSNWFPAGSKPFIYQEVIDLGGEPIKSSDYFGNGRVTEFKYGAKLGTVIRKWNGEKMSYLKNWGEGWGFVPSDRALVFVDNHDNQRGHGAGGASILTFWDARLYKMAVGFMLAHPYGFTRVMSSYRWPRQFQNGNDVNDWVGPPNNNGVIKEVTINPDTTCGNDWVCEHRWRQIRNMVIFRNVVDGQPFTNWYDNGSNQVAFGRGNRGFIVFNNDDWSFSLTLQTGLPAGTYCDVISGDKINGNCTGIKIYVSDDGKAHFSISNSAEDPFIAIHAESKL
Method: α-Amylase enzyme and other chemical reagents are used for enzyme inhibitory activity. The characterized compounds are diluted in an analytical grad solvent (DMSO) system at 1 mg/mL solution concentration. The activity reaction of the synthesized analogues on the enzyme was treated at final concentrations of 2 to 10 µg. In the interaction between enzyme and compounds, 10 min incubation was maintained before the inhibitory activity started. The enzyme-receptor inhibition efficiency was calculated and compared with the positive control.
Sodium phosphate buffer 0.2 mM (pH 6.9 with 6 × 10^− 4 M NaCl) in 500 µL enzyme solution (0.5 mg/mL) was taken and incubated with test samples (2–10 µg/mL) at room temperature for 10 min. A starch (1%) solution of 500 µL with phosphate buffer was added to all test inhibitor samples; further, the tubes were incubated for 10 min at 28 °C. The reaction test tubes were incubated for another 5 min in the water bath (100 °C) after the addition of the color reagent dinitro salicylic acid and cooled at room temperature until reached. Finally, 10 mL of distilled water was mixed with each test tube, and the colored mixture was measured at a fixed wavelength of 540 nm. The absorbance without sample solution (blank) and control (buffer and standard drug sample) was measured at 540 nm. The α-amylase inhibition efficiency was validated using the following equation:2 [drawing 2]

[1] = DPPH radical scavenging (517 nm)
Method: (§1) The experimental method principle relies on the degradation of the purple color of the DPPH radical and the blue color reduction of the ABTS cation radical. This is due to consuming the electron or hydrogen radical from the antioxidant (A-H). Both assays were measured at 517 nm and 734 nm, respectively. The distinction of color changes illustrates the potential scavenging activity of the inhibitor molecules in terms of hydrogen-donating proficiency. From this, we can conclude the anti-oxidant efficacy.
Methanolic DPPH solution (0.15 mM) was prepared, and 1.0 mL of DPPH solution was mixed with 3.0 mL of synthesized molecules at different concentrations (20 µM to 100 µM). The mixture was constantly swirled and stored RT for 30 min, followed by absorbance measurement at 517 nm.

MTT cell viability assay = type: cell-based; conditions: mouse, RAW 264.7 macrophage cells, control 100
Method: (§2) The toxicity of the molecule was investigated by the MTT cell viability assay employing RAW macrophage cells. For this study, two lead compounds, 2b and 2e, were screened based on the in vitro results. […] (The OD values in Tables S6 and S7)
(§3) The MTT ((3-(4,5-Dimethylthiazol-2-yl)-2,5-Diphenyltetrazolium Bromide)) assay was employed to determine viability for the synthesized potent compounds 2b and 2e; the cell viability results portray the compounds’ cytotoxicity. The assay was conducted on RAW macrophage cells (RAW 264.7) with various dilutions of 2b and 2e (10, 20, 30, 40, and 50 µM). The results were confirmed with a control.

[2] = system: RAW macrophage cells (RAW 264.7); assay: MTT cell viability assay; type: cell-based; conditions: RAW macrophage cells
Method: as §2, §3

[3] = ABTS cation radical scavenging (734 nm)
Method: as §1
In brief, 7.0 mM ABTS in H2O and 2.5 mM potassium persulfate (1:1) were shaken well to generate ABTS cation radicals and kept in the dark at RT for 15–20 h before it is used for the experiment. After, the radical was mixed with the synthesized molecules at different concentrations (20 µM to 100 µM). The resultant solution was measured for absorbance at 734 nm. Ascorbic acid is the positive control for this experiment.1 [drawing 1]

human RBC = assay: Anti-inflammatory activity: hypotonic solution-induced human RBC hemolysis (560 nm); type: cell-based
Method: All synthesized compounds are validated in human RBC (blood sample); the blood sample was collected from a healthy volunteer in an EDTA tube. The EDTA tube further proceeded with centrifugation at 3000 rpm for 30 min. A supernatant (which contains plasma and leucocytes) solution was isolated, and the obtained RBC (red blood cells) was further treated with Alsever’s reagent. Alsever’s reagent was prepared as follows: sodium citrate (0.8 g, 2.6 mmol), dextrose (2 g, 11.0 mmol), citric acid (0.050 g, […]), and sodium chloride (0.42 g, 7.0 mmol) were solubilized in 100 mL of distilled water. The above mixture was centrifuged for 30 min at 3000 rpm. Then, colloidal blood cells were separated, carefully transferred, and washed with 0.85% of the isosaline solution; this process continued until a clear solution appeared. Employing coagulated RBC and generated human erythrocyte hemolysis, the anti-inflammatory activity and potential of the synthesized entities were evaluated. The tested compounds are prepared at different concentrations for the inhibition activity of inflammation, along with 100 µL of a purified RBC sample utilized. All characterized samples were followed by adding 5.0 mL of trisodium phosphate (10 mM) and 5.0 mL of sodium chloride (5.0 mM) buffer solutions. After the addition of the above mixtures, the test samples are incubated for 15 min at room temperature with RBC and hypotonic mixtures. After incubation, the mixture was centrifuged at 3000 rpm for 15 min. The final supernatant liquid solution was measured at 560 nm using a UV-visible spectrophotometer.3 [drawing 3]

Structure (SMILES): O=C(NCc1ccc2c(c1)OCO2)c1cccnc1 [Compound 2e, N-(Benzo[1,3]dioxol-5-ylmethyl)nicotinamide]
- α-Amylase Inhibition % (α-amylase (EC.3.2.1.1); 2 µg): 86.09%
- α-Amylase Inhibition % (α-amylase (EC.3.2.1.1); 4 µg): 77.3%
- α-Amylase Inhibition % (α-amylase (EC.3.2.1.1); 6 µg): 74.08%
- α-Amylase Inhibition % (α-amylase (EC.3.2.1.1); 8 µg): 72.76%
- α-Amylase Inhibition % (α-amylase (EC.3.2.1.1); 10 µg): 56.22%
- IC50 (α-amylase (EC.3.2.1.1); test concentrations 2-10 µg, read-out: α-Amylase IC50±SD (converted)): 5.17 µM
- DPPH Inhibition % ([1]; 20 µM): 29.2%
- DPPH Inhibition % ([1]; 40 µM): 47.1%
- DPPH Inhibition % ([1]; 60 µM): 49.2%
- DPPH Inhibition % ([1]; 80 µM): 55.8%
- DPPH Inhibition % ([1]; 100 µM): 59%
- IC50 ([1]; read-out: DPPH IC50±SD): 52.09 ± 0.15 µM
- viability at 10 µM (MTT cell viability assay; 10 µM): 89.1%
- viability at 20 µM (MTT cell viability assay; 20 µM): 81.7%
- viability at 30 µM (MTT cell viability assay; 30 µM): 74.8%
- viability at 40 µM (MTT cell viability assay; 40 µM): 65.1%
- viability at 50 µM (MTT cell viability assay; 50 µM): 56.4%
- Toxicity, outcome of the MTT cell viability assay (in words) [2]: viable for the cell line
- ABTS Inhibition % ([3]; 20 µM): 23.4%
- ABTS Inhibition % ([3]; 40 µM): 27.9%
- ABTS Inhibition % ([3]; 60 µM): 29.3%
- ABTS Inhibition % ([3]; 80 µM): 35.4%
- ABTS Inhibition % ([3]; 100 µM): 43%
- IC50 ([3]; read-out: ABTS IC50±SD): 45.63 ± 0.19 µM
- inhibition at 20 µM (human RBC; 20 µM): 33.6%
- inhibition at 40 µM (human RBC; 40 µM): 42.8%
- inhibition at 60 µM (human RBC; 60 µM): 43%
- inhibition at 80 µM (human RBC; 80 µM): 48.2%
- inhibition at 100 µM (human RBC; 100 µM): 60%
- IC50 (human RBC; induced human RBC hemolysis, read-out: Inflammatory IC50±SD): 14.1 ± 0.15 µM
